Test results from publication PMC9967645, “OAT3 Participates in Drug–Drug Interaction between Bentysrepinine and Entecavir through Interactions with M8—A Metabolite of Bentysrepinine—In Rats and Humans In Vitro” (Molecules, 2023).
Like-named read-outs stand apart in the source and are kept apart here.

How the values were obtained:
[1] = Pharmacokinetic DDI study in rats, intravenous Y101 and/or ETV; format: in vivo, Sprague–Dawley (SD) rats; settings: Sprague-Dawley, rat, plasma; for AUC(0-inf) / AUC(0-t) / Cmax / Tmax / half-life / C0 / Vd: n = 4; for clearance: n = 4, read-out: CLp (plasma clearance) (converted)
Procedure: Additionally, DDI between Y101 and ETV was investigated by monitoring time-course plasma Y101 in rats with surgery as described above. Animals were randomly placed into three groups (n = 4): (1) Y101 alone (25 mg/kg for intravenous treatment and 60 mg/kg for oral administration); (2) ETV (0.06 mg/kg); and (3) Y101 (25 mg/kg for intravenous treatment and 60 mg/kg for oral administration) + ETV (0.06 mg/kg). ETV was dissolved in saline at concentration of 12 µg/mL. Rats received an oral or intravenous dose of Y101 and/or ETV at volume of 5 mL/kg. The doses used in in vivo pharmacokinetic studies were selected in accordance with therapeutic doses of Y101 and ETV commonly used clinically and in previous studies.
Following administration, serial blood samples were collected through jugular vein pre-dose (0 h) and post-dose at 0.033, 0.083, 0.25, 0.5, 1, 1.5, 2, 3, 4, 6, 9, 12, 24 and 30 h in heparinized Eppendorf tubes. The resulting samples were centrifuged at 13,800× g at 4 °C for 5 min to obtain plasma. All plasma samples were stored at −70 °C until analysis.
Biological samples were prepared as previously described.
Non-compartmental analysis with Phenix WinNonlin (version 8.1; Pharsight, Certara Corp, Princeton, NJ) was used to calculate the main pharmacokinetic parameters of ETV, Y101, M8 and M9 for individual rats. The observed values were reported for maximum concentration (Cmax) and time to reach maximum concentration (Tmax), while the area under the plasma concentration–time curve (AUC) was calculated via the default trapezoidal-up, log-trapezoidal-down approach.

hOAT3 = molecular target: T1, hOAT3 (Homo sapiens, UniProt Q8TCC7); assay: In vitro uptake assay in hOAT3-HEK293 cells; settings: M8 10 µM; for inhibition of the uptake of ETV in hOAT3-HEK293 cells / substrate of hOAT3 (uptake in hOAT3-HEK293 vs mock-HEK293 cells): Y101 2.0 µM; for substrate of hOAT3 (uptake in hOAT3-HEK293 vs mock-HEK293 cells): ES 10 µM
T1 sequence (Q8TCC7 1-542): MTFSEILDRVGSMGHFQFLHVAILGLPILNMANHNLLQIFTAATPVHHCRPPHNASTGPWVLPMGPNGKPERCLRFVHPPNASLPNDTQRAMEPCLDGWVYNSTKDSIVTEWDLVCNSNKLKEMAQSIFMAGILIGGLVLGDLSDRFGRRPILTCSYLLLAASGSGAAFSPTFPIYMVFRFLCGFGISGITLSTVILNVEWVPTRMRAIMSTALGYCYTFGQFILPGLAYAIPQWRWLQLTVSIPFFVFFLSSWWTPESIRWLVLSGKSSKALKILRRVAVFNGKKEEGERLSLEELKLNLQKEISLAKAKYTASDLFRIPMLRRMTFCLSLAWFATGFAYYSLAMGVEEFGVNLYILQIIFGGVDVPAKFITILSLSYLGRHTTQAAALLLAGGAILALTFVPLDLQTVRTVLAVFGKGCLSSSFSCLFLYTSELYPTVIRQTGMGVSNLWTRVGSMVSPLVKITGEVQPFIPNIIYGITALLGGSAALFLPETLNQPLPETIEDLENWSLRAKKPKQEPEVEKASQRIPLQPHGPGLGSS
Procedure: The hOAT1-HEK293, hOAT3-HEK293 and mock cells were cultured in Dulbecco modified Eagle medium (DMEM) containing 10% fetal bovine serum (FBS) and 1% penicillin/streptomycin in an atmosphere of 5% CO2 air at 37 °C. The HEK293 cells were plated on 24-well plates at a density of 5 × 10^5 cells/well. […] Uptake assay was initiated by adding 1 mL of the transporter buffer containing Y101, M8, ETV or probe substrate. Following incubation with gentle shaking, the uptake was terminated at designated time by removing the transporter buffer and washing cells three times with 1 mL of ice-cold HBSS. Next, substrates of Y101, M8, ETV, PAH and ES in cell monolayer were released by lysing the cells with 0.3 mL of 0.1% Triton X-100 for 2 h and determined by liquid chromatography–tandem mass spectrometry (LC–MS/MS). In the time-course uptake assay, Y101 (2.0 µM) and M8 (10 µM) in the presence or absence of PRO (100 µM) were measured in hOAT1-HEK293, hOAT3-HEK293 and mock cells. The concentration-dependent uptake of M8 was determined in hOAT3-HEK293 cells, and incubation time (5 min) was optimized. The uptake of M8 (10 µM) with or without ETV was examined in hOAT3-HEK293 cells. The uptake of ETV (10 µM) with or without Y101 or M8 was also measured in hOAT1-HEK293 and hOAT3-HEK293 cells, respectively. Furthermore, PAH and ES at concentrations of 10 µM were used as positive control in hOAT1-HEK293 and hOAT3-HEK293 cells, respectively. Protein concentrations were measured by the bicinchoninic acid procedure (Solarbio, Beijing, China) using bovine serum albumin as the standard.
Biological samples were prepared as previously described. Aliquots (50 µL) of urine, plasma, kidney homogenates, or cell lysates were individually mixed with 150 µL methanol and 50 µL working solution of internal standard (acetaminophen or bestatin), followed by vortexing for 1 min and centrifuging at 13,800 g for 10 min. […] The resulting supernatant (1 µL) was subjected to LC-MS/MS for the assessment of Y101, M8, M9 and ETV, respectively. […] The concentrations of ETV, Y101, M8 and M9 were determined by an AB QTRAP 5500 LC–MS/MS System (Foster City, CA, USA) as previously described. Chromatographic separation was achieved on an Infinitylab Poroshell 120 EC-C18 (50 mm × 2.1 mm, 2.7 µm, Agilent Technology Inc., CA, USA) at 40 °C. The mobile phase consisted of formic acid-acetonitrile (0.05:100, v/v) and a mixture of 1 mmol-ammonium acetate-acetonitrile-formic acid (95:5:0.05, v/v/v) at a flow rate of 0.3 mL/min. […] Analyst1.5.2 software was used for data processing and analysis.

[2] = i.v. Y101 25 mg/kg + ETV 0.06 mg/kg

Row | AUC(0-inf) [1, 2] [ng·h/mL] | AUC(0-t) [1, 2] [ng·h/mL] | half-life [1, 2] [min] | SMILES | AUC(0-inf) ([1]; i.v. Y101 25 mg/kg alone) [ng·h/mL] | AUC(0-t) ([1]; i.v. Y101 25 mg/kg alone) [ng·h/mL] | half-life ([1]; i.v. Y101 25 mg/kg alone) [min] | inhibition of the uptake of ETV in hOAT3-HEK293 cells (hOAT3; ETV 10 µM) | substrate of hOAT3 (uptake in hOAT3-HEK293 vs mock-HEK293 cells) (hOAT3) | C0 [1, 2] [ng/mL] | Vd [1, 2] [L/kg] | clearance [1, 2] [mL/min/kg] | also measured
1 | 6150 | 6100 | 159 | CN(C)CCOc1ccc(CC(NC(=O)c2ccccc2)C(=O)O)cc1 (stereo not drawn) [M8] | 5860 | 5830 | 116 | not inhibited | substrate of hOAT3 |  |  |  | Cmax [1, 2]: 2520 ng/mL; Cmax ([1]; i.v. Y101 25 mg/kg alone): 2660 ng/mL; Tmax [1, 2]: 26.3 min; Tmax ([1]; i.v. Y101 25 mg/kg alone): 30 min
2 | 6.76 | 6.31 | 76.8 | C=C1[C@H](CO)[C@@H](O)C[C@@H]1n1cnc2c(=O)[nH]c(N)nc21 [ETV, entecavir] |  |  |  |  |  | 19.1 | 16.4 | 152 | AUC(0-inf) ([1]; i.v. ETV 0.06 mg/kg alone): 9.79 ng·h/mL; AUC(0-t) ([1]; i.v. ETV 0.06 mg/kg alone): 9.21 ng·h/mL; C0 ([1]; i.v. ETV 0.06 mg/kg alone): 26.4 ng/mL; Vd ([1]; i.v. ETV 0.06 mg/kg alone): 11.7 L/kg; half-life ([1]; i.v. ETV 0.06 mg/kg alone): 76.8 min; clearance ([1]; i.v. ETV 0.06 mg/kg alone): 107 mL/min/kg; inhibition of the uptake of M8 in hOAT3-HEK293 cells (hOAT3; PRO 100 µM, ETV 10 µM): inhibited the uptake of M8

Row | SMILES | AUC(0-inf) [1, 2] [ng·h/mL] | AUC(0-t) [1, 2] [ng·h/mL] | half-life [1, 2] [min] | AUC(0-inf) ([1]; i.v. Y101 25 mg/kg alone) [ng·h/mL] | AUC(0-t) ([1]; i.v. Y101 25 mg/kg alone) [ng·h/mL] | half-life ([1]; i.v. Y101 25 mg/kg alone) [min] | inhibition of the uptake of ETV in hOAT3-HEK293 cells (hOAT3; ETV 10 µM) | substrate of hOAT3 (uptake in hOAT3-HEK293 vs mock-HEK293 cells) (hOAT3) | C0 [1, 2] [ng/mL] | Vd [1, 2] [L/kg] | clearance [1, 2] [mL/min/kg] | also measured
3 | CN(C)CCOc1ccc(C[C@H](NC(=O)c2ccccc2)C(=O)N[C@H](CO)Cc2ccccc2)cc1.Cl [Y101, N-[N-benzoyl-O-(2-dimethylaminoethyl)-l-tyrosyl]-l-phenylalaninol hydrochloride] | 1690 | 1670 | 39.6 | 2370 | 2350 | 40.9 | not inhibited | not a substrate of hOAT1 or hOAT3 | 6280 | 15.5 | 258 | C0 ([1]; i.v. Y101 25 mg/kg alone): 10600 ng/mL; Vd ([1]; i.v. Y101 25 mg/kg alone): 10.6 L/kg; clearance ([1]; i.v. Y101 25 mg/kg alone): 178 mL/min/kg
